Assay results as given in US9945862B2, “Biomarkers for predicting and assessing responsiveness of thyroid and kidney cancer subjects to lenvatinib compounds” (Eisai R&D Management Co., Ltd., priority 2011, dated 2018).

Tested on: cytokine, chemokine and angiogenic factors (blood biomarkers)
Assay: Serum blood biomarkers (cytokine, chemokine and angiogenic factors) by ELISA and multiplex kits, pre- and post-treatment with E7080
Assay type: in vivo, human
Experimental: Patients received E7080 at a dose of 24 mg oral once daily in 28 day cycles. […] 7.5 mL of blood was drawn into serum […] tube (SST) and let to clot at room temperature for at least 30 min. Within 60 minutes of sample collection, the tubes were centrifuged for 10 minutes at 20-25° C. at 1400×g. The supernatant was drawn without disturbing the pellet and the serum was mixed and divided into two sample tubes and stored frozen (−70° C.) at an upright position until further treatment for analysis. Serum samples from 58 patients were used for blood biomarker analysis. […] The association of progression free survival with or without a covariate was analyzed. The covariates used are the following PK parameters: cycle 1 day 1 Cmax (E7080 concentration 2 hr after dosing on cycle 1 day 1: MAX1); cycle 1 day 1 Ctrough (E7080 concentration before dosing on cycle1 day 8: MIN1); cycle 2 day 1 Cmax (E7080 concentration 2 hrs after dosing on cycle 2 day 1: MAX2); cycle 2 day 1 Ctrough (E7080 concentration before dosing on cycle 2 day 1: MIN2). Serum samples were tested in batch format where all timepoints from the same subject were assayed on the same day. On the day of assay, samples were removed from −80° C. and allowed to thaw and reach room temperature. The serum samples were tested using the following commercial assay kits as per the manufacturer's instructions: Human Soluble Tie-2 ELISA (R&D Systems Cat. No. DTE200), Human Angiopoietin-1 ELISA (R&D Systems Cat. No. DANG10), Human FGF23 ELISA, Human SDF-1a ELISA. Human Angiopoietin-2 ELISA (R&D Systems Cat. No. DANG20), Human Soluble Receptor Multiplex (Millipore Cat. No. HSCR-32K; sVEGF R1, sVEGF R2 and sVEGF R3 only), Human Cytokine/Chemokine Panel I Multiplex (Millipore Cat. No. MPXHCYTO-60K; IL-1α, IL-1β, IL-1ra, IL-2, IL-4, IL-5, IL-6, IL-7, IL-8, IL-10, IL-12p40, IL-12p70, IL-13, IL-15, IL-17, sCD40L, EGF, Eotaxin, FGF-2, G-CSF, GM-CSF, IFN-γ, IP-10, MCP-1, MIP-1α, MIP-1β, PDGF-AA, RANTES, TGF-α, TNF-α and VEGF only) and Human Growth Factor Multiplex (Origene TruPLEX Cat. No. AM100096; PDGF-AB, PDGF-BB, FGF4, VEGFD, FGF2, EGF, HGF, FLT3LG, ANGPT2, PGF and VEGFA).
The ELISA plates were measured using a Molecular Devices UVmax kinetic microplate reader with SoftMax Pro 5.2 software. The multiplex assays were performed using the Bio-Rad Bio-Plex system with Bio-Plex Manager 4.1 software. Final protein concentrations (pg/mL) were calculated from the standard curve for each assay. Depending on the assay, serum samples may have been diluted in assay buffer prior to testing. In these cases, protein concentrations were multiplied by the dilution factor.
From 58 patient samples, between 27 and 49 pre- and post-treatment blood samples were used for analyses.

COc1cc2nccc(Oc3ccc(NC(=O)NC4CC4)c(Cl)c3)c2cc1C(N)=O [E7080, 4-(3-chloro-4-(cyclopropylaminocarbonyl)aminophenoxy)-7-methoxy-6-quinolinecarboxamide]
sVEGFR2 fold change (median) (CYCLE 1 DAY 8 vs CYCLE 1 DAY 1): 0.676 | FGF2 (79) ratio (Median), PR group (CYCLE 2 DAY 2/CYCLE 1 DAY 8): 1.132 | FGF2 (79) ratio (Median), others (SD or PD) (CYCLE 2 DAY 2/CYCLE 1 DAY 8): 0.978 | GM-CSF ratio (Median), PR group (CYCLE 2 DAY 2/CYCLE 1 DAY 8): 1.051 | GM-CSF ratio (Median), others (SD or PD) (CYCLE 2 DAY 2/CYCLE 1 DAY 8): 0.876 | HGF (86) ratio (Median), PR group (CYCLE 2 DAY 2/CYCLE 1 DAY 8): 0.789 | HGF (86) ratio (Median), others (SD or PD) (CYCLE 2 DAY 2/CYCLE 1 DAY 8): 1.087 | Tie-2 ratio (Median), PR group (CYCLE 2 DAY 2/CYCLE 1 DAY 8): 0.791 | Tie-2 ratio (Median), others (SD or PD) (CYCLE 2 DAY 2/CYCLE 1 DAY 8): 0.852 | VEGFA (100) ratio (Median), PR group (CYCLE 2 DAY 2/CYCLE 1 DAY 8): 0.899 | VEGFA (100) ratio (Median), others (SD or PD) (CYCLE 2 DAY 2/CYCLE 1 DAY 8): 1.172 | ANG2 (90) serum level post treatment (median) (CYCLE 2 DAY 8): 600.6 pg/mL | Ang-2 serum level post treatment (median) (CYCLE 2 DAY 8): 1533 pg/mL | EGF (80) serum level post treatment (median) (CYCLE 2 DAY 8): 875.8 pg/mL | EGF serum level post treatment (median) (CYCLE 2 DAY 8): 75.9 pg/mL | Eotaxin serum level post treatment (median) (CYCLE 2 DAY 8): 177 pg/mL | G-CSF serum level post treatment (median) (CYCLE 2 DAY 8): 61.3 pg/mL | IL-6 concentration (Median), PR group (CYCLE 2 DAY 8): 8.2 pg/mL | IL-6 concentration (Median), others (SD or PD) (CYCLE 2 DAY 8): 33.9 pg/mL | IL-6 serum level post treatment (median) (CYCLE 2 DAY 8): 15 pg/mL | IL-8 serum level post treatment (median) (CYCLE 2 DAY 8): 31.4 pg/mL | IP-10 serum level post treatment (median) (CYCLE 2 DAY 8): 602.8 pg/mL | MCP-1 serum level post treatment (median) (CYCLE 2 DAY 8): 618.0 pg/mL | PGF (91) serum level post treatment (median) (CYCLE 2 DAY 8): 46.0 pg/mL | SDF-1a serum level post treatment (median) (CYCLE 2 DAY 8): 3529.5 pg/mL | Tie-2 serum level post treatment (median) (CYCLE 2 DAY 8): 26220 pg/mL | VEGFA (100) serum level post treatment (median) (CYCLE 2 DAY 8): 212.5 pg/mL | sVEGFR1 serum level post treatment (median) (CYCLE 2 DAY 8): 341.5 pg/mL | sVEGFR2 serum level post treatment (median) (CYCLE 2 DAY 8): 13352.1 pg/mL | sVEGFR3 serum level post treatment (median) (CYCLE 2 DAY 8): 4030.9 pg/mL | Eotaxin ratio (Median), PR group (CYCLE 2 DAY 8/CYCLE 1 DAY 1): 1.541 | Eotaxin ratio (Median), others (SD or PD) (CYCLE 2 DAY 8/CYCLE 1 DAY 1): 1.242 | IP-10 ratio (Median), PR group (CYCLE 2 DAY 8/CYCLE 1 DAY 1): 1.547 | IP-10 ratio (Median), others (SD or PD) (CYCLE 2 DAY 8/CYCLE 1 DAY 1): 1.151 | ANG2 (90) fold change (median) (CYCLE 2 DAY 8 vs CYCLE 1 DAY 1): 0.586 | Ang-2 fold change (median) (CYCLE 2 DAY 8 vs CYCLE 1 DAY 1): 0.618 | EGF (80) fold change (median) (CYCLE 2 DAY 8 vs CYCLE 1 DAY 1): 1.17 | EGF fold change (median) (CYCLE 2 DAY 8 vs CYCLE 1 DAY 1): 0.808 | Eotaxin fold change (median) (CYCLE 2 DAY 8 vs CYCLE 1 DAY 1): 1.363 | G-CSF fold change (median) (CYCLE 2 DAY 8 vs CYCLE 1 DAY 1): 1.215 | IL-6 fold change (median) (CYCLE 2 DAY 8 vs CYCLE 1 DAY 1): 1.299 | IL-8 fold change (median) (CYCLE 2 DAY 8 vs CYCLE 1 DAY 1): 1.205 | IP-10 fold change (median) (CYCLE 2 DAY 8 vs CYCLE 1 DAY 1): 1.382 | MCP-1 fold change (median) (CYCLE 2 DAY 8 vs CYCLE 1 DAY 1): 1.086 | PGF (91) fold change (median) (CYCLE 2 DAY 8 vs CYCLE 1 DAY 1): 3.05 | SDF-1a fold change (median) (CYCLE 2 DAY 8 vs CYCLE 1 DAY 1): 1.345 | Tie-2 fold change (median) (CYCLE 2 DAY 8 vs CYCLE 1 DAY 1): 0.766 | VEGFA (100) fold change (median) (CYCLE 2 DAY 8 vs CYCLE 1 DAY 1): 1.426 | sVEGFR1 fold change (median) (CYCLE 2 DAY 8 vs CYCLE 1 DAY 1): 0.805 | sVEGFR2 fold change (median) (CYCLE 2 DAY 8 vs CYCLE 1 DAY 1): 0.499 | sVEGFR3 fold change (median) (CYCLE 2 DAY 8 vs CYCLE 1 DAY 1): 0.843
